Assay results from ChEMBL document CHEMBL4342437, “Development and structure-activity relationship study of SHP2 inhibitor containing 3,4,6-trihydroxy-5-oxo-5H-benzo[7]annulene” (Bioorg Med Chem Lett, 2020).
Activity calls are given as the source filed them. The rule behind the calls is not given here.

Columns and labels:
[1] = target: T1, Tyrosine-protein phosphatase non-receptor type 11 (Homo sapiens) (UniProt Q06124); assay: Inhibition of recombinant human SHP2 expressed in Escherichia coli using 2P-IRS1 peptide as substrate at 1 uM after 1 hr by microplate reader analysis relative to control
T1 sequence (whole entry): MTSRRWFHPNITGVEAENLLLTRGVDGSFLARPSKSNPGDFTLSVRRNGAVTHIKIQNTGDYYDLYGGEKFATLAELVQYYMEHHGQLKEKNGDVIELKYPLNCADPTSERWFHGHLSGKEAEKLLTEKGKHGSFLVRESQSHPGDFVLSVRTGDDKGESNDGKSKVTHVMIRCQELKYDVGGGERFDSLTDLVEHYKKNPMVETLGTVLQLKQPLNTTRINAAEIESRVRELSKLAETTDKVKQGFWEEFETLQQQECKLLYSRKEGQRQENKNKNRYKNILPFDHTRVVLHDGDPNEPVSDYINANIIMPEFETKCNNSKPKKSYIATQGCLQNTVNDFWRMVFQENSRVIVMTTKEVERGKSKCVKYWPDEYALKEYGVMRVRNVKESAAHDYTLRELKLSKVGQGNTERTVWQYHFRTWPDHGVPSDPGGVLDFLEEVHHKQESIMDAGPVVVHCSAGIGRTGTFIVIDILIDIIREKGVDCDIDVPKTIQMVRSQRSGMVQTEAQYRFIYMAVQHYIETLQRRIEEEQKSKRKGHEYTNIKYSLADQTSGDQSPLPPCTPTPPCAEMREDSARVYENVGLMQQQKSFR

[2] = target: T2, Tyrosine-protein phosphatase non-receptor type 11 (Homo sapiens, UniProt Q06124); assay: Inhibition of recombinant human SHP2 expressed in Escherichia coli using 2P-IRS1 peptide as substrate after 1 hr by microplate reader analysis
T2 sequence (Q06124 whole entry): T1 sequence (whole entry)

[3] = system: MDA-MB-468; assay: Antiproliferative activity against human MDA-MB-468 3D spheroids assessed as reduction in cell viability at 20 uM after 2 to 4 days by CCK-8 assay relative to control; format: functional
[4] = system: MDA-MB-468; assay: Antiproliferative activity against human MDA-MB-468 cells assessed as reduction in cell viability after 2 to 4 days by CCK-8 assay; format: functional, cell-based
[5] = system: MDA-MB-468; assay: Antiproliferative activity against SHP2 knockout human MDA-MB-468 cells with assessed as increase in cell viability at 100 uM after 2 to 4 days by CCK-8 assay relative to MDA-MB-468 cells expressing SHP2; format: functional
[6] = system: MDA-MB-468; assay: Antiproliferative activity against human MDA-MB-468 3D spheroids assessed as reduction in cell viability after 2 to 4 days by CCK-8 assay; format: functional, cell-based
[7] = target: T1, Tyrosine-protein phosphatase non-receptor type 11 (Homo sapiens); assay: Non-competitive inhibition of recombinant human SHP2 expressed in Escherichia coli using 2P-IRS1 peptide as substrate up to 200 uM after 1 hr by Lineweaver-Burk plot analysis
[8] = system: MDA-MB-468; assay: Potency index, ratio of SHP099 IC50 to compound IC50 for antiproliferative activity against human MDA-MB-468 cells after 2 to 4 days by CCK-8 assay; format: functional

SMILES	inhibition [1] [%]	IC50 [2] [µM]	further results
COc1ccc2cc(C(=O)O)cc(OC)c(=O)c2c1OC	0	–	–
CC(C)OC(=O)c1cc(O)c(=O)c2c(O)c(O)ccc2c1	2	4.87	–
COC(=O)c1cc(OC)c(=O)c2c(OC)c(OC)ccc2c1	0	–	–
N#Cc1cc(O)c(=O)c2c(O)c(O)ccc2c1	40	1.23	–
O=c1c(O)cccc2ccc(O)c(O)c12	0	–	–
NC(=O)c1cc(O)c(=O)c2c(O)c(O)c(F)cc2c1	52	0.949	–
O=C(O)c1cc(O)c(=O)c2c(O)c(O)c(F)cc2c1	90	0.277	Activity [3]: 37.2%; IC50 [4]: 71 µM; fold change (FC) [5]: 16.3; IC50 [6]: 39.2 µM
O=c1c(O)cc(-c2nc(CCl)co2)cc2ccc(O)c(O)c12	29	1.57	–
NC(=O)c1cc(O)c(=O)c2c(O)c(O)ccc2c1	13	4.11	–
COC(=O)c1cc(O)c(=O)c2c(O)c(O)ccc2c1 [METHYL 7-DESHYDROXYPYROGALLIN-4-CARBOXYLATE]	87	0.161	Activity [3]: 27.5%; IC50 [4]: 4.6 µM; fold change (FC) [5]: 3; IC50 [6]: 62.9 µM
CC1(N)CCN(c2cnc(-c3cccc(Cl)c3Cl)c(N)n2)CC1	–	–	IC50 [4]: 29.9 µM; IC50 [6]: 49.6 µM
COC(=O)c1cc(O)c(=O)c2c(O)c(O)c(F)cc2c1	12	7.55	–
CC(C)OC(=O)c1cc(O)c(=O)c2c(O)c(O)c(F)cc2c1	0.47	7.74	–
O=C(O)c1cc(O)c(=O)c2c(O)c(O)ccc2c1 [7-DESHYDROXYPYROGALLIN-4-CARBOXYLIC ACID]	93	0.097	inhibition [7]: Active; Ratio IC50 [8]: 5.6; Activity [3]: 35.7%; IC50 [4]: 5.3 µM; fold change (FC) [5]: 19.3; IC50 [6]: 35.8 µM
COc1cc2cc(C(N)=O)cc(O)c(=O)c2c(O)c1O	0	–	–
CCOC(=O)c1cc(O)c(=O)c2c(O)c(O)ccc2c1	50	0.985	–
COC(=O)c1cc(O)c(=O)c2c(O)c(O)c(OC)cc2c1	6	8.66	–
CCOC(=O)c1cc(O)c(=O)c2c(O)c(O)c(F)cc2c1	19	6.54	–
